Values of other authors as cited in patent publication US6924273B2, “Chondroprotective/restorative compositions and methods of use thereof” (priority 2000, dated 2005).
One block for each compound: values may come before it.

How the values were obtained:
[1] = oral administration
mice = conditions: 5000 mg/kg orally
rats = conditions: 5000 mg/kg orally
[2] = oral administration; remark: listed apart in the source

Compound: N[C@H]1C(O)O[C@H](CO)[C@@H](O)[C@@H]1O.O=S(=O)(O)O (some centres unmarked) [Glucosamine sulfate]
- absorbed [1]: greater than 90%
- mortality (no LD50 established) (mice): no mortality
- mortality (no LD50 established) (rats): no mortality

Compound: N[C@H]1C(O)O[C@H](CO)[C@@H](O)[C@@H]1O (some centres unmarked) [Glucosamine]
- solubility in water: very soluble in water

- bioavailability [2]: around 15%
Compound: Chondroitin sulfate [CS]
